Test results reported in patent US20230135152A1 (ACURASTEM INCORPORATED, priority 2020, published 2023).

Tests used:
PIKFYVE [1] = molecular target: T1, PIKFYVE (Homo sapiens, UniProt Q9Y2I7); test: Cell-based Pikfyve inhibition activity assay (EEA1 staining, mean vesicle size in BJ fibroblast cells); details: Table 4, 4 hours treatment, 3 μM Apilimod = 100% inhibition
Procedure, shortened: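 BJ fibroblasts treated 4 h at 37° C with eleven 3-fold doses (0.03-3000 nM), then fixed and stained for EEA1. Confocal images (20×, 16 tiles/well) analysed for mean vesicle size. Normalised to 0.5% DMSO (0%) and 3 μM apilimod (100%); dose-response fitted with variable slope.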

PIKFYVE [2] = molecular target: T1, PIKFYVE; test: PIKFYVE assay (luciferase ADP-Glo kinase assay, Promega); format: biochemical
Procedure, shortened: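 Kinase activity measured with a luciferase-based ADP-Glo read-out, which quantifies ADP formed by the enzyme.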

T1 sequence (Q9Y2I7 whole entry): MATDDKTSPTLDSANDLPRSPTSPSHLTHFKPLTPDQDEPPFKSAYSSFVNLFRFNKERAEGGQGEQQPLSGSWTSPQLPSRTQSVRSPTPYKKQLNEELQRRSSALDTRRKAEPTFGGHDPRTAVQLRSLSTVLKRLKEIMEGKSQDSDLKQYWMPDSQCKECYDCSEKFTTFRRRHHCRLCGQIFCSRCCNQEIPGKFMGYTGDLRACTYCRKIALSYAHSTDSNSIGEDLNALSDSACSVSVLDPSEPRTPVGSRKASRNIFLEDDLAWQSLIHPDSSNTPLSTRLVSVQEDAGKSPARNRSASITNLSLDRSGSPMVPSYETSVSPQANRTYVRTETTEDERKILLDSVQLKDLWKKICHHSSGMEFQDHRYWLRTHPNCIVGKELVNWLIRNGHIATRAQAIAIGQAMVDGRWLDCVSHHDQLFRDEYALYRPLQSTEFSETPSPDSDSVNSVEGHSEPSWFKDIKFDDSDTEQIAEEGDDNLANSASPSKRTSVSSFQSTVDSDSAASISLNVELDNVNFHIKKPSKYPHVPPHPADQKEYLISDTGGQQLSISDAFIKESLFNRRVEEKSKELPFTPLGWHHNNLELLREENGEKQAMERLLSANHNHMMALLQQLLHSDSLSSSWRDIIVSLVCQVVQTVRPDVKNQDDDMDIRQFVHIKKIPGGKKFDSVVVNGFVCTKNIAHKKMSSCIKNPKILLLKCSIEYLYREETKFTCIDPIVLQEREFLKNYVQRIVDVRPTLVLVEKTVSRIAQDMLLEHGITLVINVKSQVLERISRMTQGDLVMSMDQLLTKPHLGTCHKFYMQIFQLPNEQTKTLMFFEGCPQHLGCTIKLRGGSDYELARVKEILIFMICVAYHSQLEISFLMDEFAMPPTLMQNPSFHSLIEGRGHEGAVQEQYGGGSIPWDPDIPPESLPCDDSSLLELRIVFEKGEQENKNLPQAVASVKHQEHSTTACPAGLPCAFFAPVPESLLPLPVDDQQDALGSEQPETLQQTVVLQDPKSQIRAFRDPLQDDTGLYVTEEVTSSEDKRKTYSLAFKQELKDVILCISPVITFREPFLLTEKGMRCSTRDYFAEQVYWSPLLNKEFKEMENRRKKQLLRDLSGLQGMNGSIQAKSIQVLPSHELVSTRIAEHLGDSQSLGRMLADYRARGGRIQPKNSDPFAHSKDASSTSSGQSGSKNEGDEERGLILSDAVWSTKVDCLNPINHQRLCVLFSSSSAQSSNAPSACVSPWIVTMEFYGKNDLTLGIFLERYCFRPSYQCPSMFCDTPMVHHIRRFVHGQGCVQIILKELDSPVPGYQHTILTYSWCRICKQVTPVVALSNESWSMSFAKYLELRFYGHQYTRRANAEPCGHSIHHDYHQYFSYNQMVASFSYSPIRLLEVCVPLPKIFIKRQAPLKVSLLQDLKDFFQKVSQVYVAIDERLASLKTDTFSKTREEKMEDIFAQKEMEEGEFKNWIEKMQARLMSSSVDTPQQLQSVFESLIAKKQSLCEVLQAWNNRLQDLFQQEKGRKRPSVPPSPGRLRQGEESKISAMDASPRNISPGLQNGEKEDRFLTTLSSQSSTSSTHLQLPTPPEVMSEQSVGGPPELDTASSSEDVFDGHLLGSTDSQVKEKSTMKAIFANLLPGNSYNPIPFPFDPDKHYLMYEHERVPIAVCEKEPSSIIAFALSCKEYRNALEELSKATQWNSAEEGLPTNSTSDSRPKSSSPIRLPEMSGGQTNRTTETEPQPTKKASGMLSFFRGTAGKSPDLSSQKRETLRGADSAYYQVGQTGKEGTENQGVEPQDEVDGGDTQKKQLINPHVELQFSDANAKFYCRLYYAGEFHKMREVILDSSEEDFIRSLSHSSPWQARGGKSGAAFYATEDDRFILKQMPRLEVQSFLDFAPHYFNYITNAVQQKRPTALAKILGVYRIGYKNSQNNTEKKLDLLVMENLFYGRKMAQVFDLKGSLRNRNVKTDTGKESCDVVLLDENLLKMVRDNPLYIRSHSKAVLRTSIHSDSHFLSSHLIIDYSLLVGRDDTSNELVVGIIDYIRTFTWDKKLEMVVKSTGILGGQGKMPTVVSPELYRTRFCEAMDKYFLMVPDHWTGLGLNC

EC50 (PIKFYVE [1]) [nM]	IC50 (PIKFYVE [2]; Table 3) [nM]	IC50 (PIKFYVE [2]; Table 2) [nM]	SMILES
> 5000	3 to 10		Cc1cccc(-c2ccn(-c3cc(N4CCOCC4)nc([C@H]4CCOC4)n3)n2)c1 (single isomer, unassigned) [Compound 329]
100 to 500	< 3		Cc1cccc(-c2ccn(-c3cc(N4CCOCC4)nc(CCc4cnn(C)c4)n3)n2)c1 [Compound 223, 4-(2-(2-(1-methyl-1H-pyrazol-4-yl)ethyl)-6-(3-(m-tolyl)-1H-pyrazol-1-yl)pyrimidin-4-yl)morpholine]
100 to 500	3 to 10		CCO[C@H](CO)c1nc(N2CCOCC2)cc(-n2ccc(-c3cccc(C)c3)n2)n1 (single isomer, unassigned) [Compound 311]
500 to 5000	3 to 10		Cc1cccc(-c2cc(CN(C)C)n(-c3cc(N4CCOCC4)c4[nH]ccc4n3)n2)c1 [Compound 242, N,N-dimethyl-1-(1-(7-morpholino-1H-pyrrolo[3,2-b]pyridin-5-yl)-3-(m-tolyl)-1H-pyrazol-5-yl)]
20 to 100	< 3		Cc1cc(-c2ccccc2)nn1-c1cc(N2CCOCC2)nc(OCCc2cnn(C)c2)n1 [Compound 127, 4-(2-(2-(1-methyl-1H-pyrazol-4-yl)ethoxy)-6-(5-methyl-3-phenyl-1H-pyrazol-1-yl)pyrimidin-4-yl)morpholine]
500 to 5000	3 to 10		CC[C@@H](OC)c1nc(N2CCOCC2)cc(-n2ccc(-c3cccc(C)c3)n2)n1 (single isomer, unassigned) [Compound 322]
20 to 100	< 3		Cc1cccc(Oc2ccn(-c3cc(N4CCOCC4)nc(OCCc4cnn(C)c4)n3)n2)c1 [Compound 346]
500 to 5000	3 to 10		Cn1cc(CCOc2nc(Oc3cc(-c4ccccc4)nn3C)cc(N3CCOCC3)n2)cn1 [Compound 212, 4-(2-(2-(1-methyl-1H-pyrazol-4-yl)ethoxy)-6-((1-methyl-3-phenyl-1H-pyrazol-5-yl)oxy)pyrimidin-4-yl)morpholine]
500 to 5000		5 to 100	COC(c1ccccc1)c1nc(N2CCOCC2)cc(-n2ccc(-c3ccccc3)n2)n1 (stereo not drawn) [Compound 78, 4-(2-(methoxy(phenyl)methyl)-6-(3-phenyl-1H-pyrazol-1-yl)pyrimidin-4-yl)morpholine]
20 to 100	3 to 10		CO[C@H](CO)c1nc(N2CCOCC2)cc(-n2ccc(-c3cn(C)c4ccccc34)n2)n1 (single isomer, unassigned) [Compound 320]
100 to 500	3 to 10		COCc1cccc(-c2ccn(-c3cc(N4CCOCC4)nc([C@@H](CO)OC)n3)n2)c1 [Compound 276, (S)-2-methoxy-2-(4-(3-(3-(methoxymethyl)phenyl)-1H-pyrazol-1-yl)-6-morpholinopyrimidin-2-yl)ethan-1-ol]
< 20	< 3		C/C=C/COc1nc(N2CCOCC2)cc(-n2ccc(-c3cccc(C)c3)n2)n1 [Compound 102, (E)-4-(2-(but-2-en-1-yloxy)-6-(3-(m-tolyl)-1H-pyrazol-1-yl)pyrimidin-4-yl)morpholine]
> 5000	100 to 5000		Cn1cc(CCOc2nc(N3CCOCC3)cc(-n3ccc(C(=O)O)n3)n2)cn1 [Compound 178, 1-(2-(2-(1-methyl-1H-pyrazol-4-yl)ethoxy)-6-morpholinopyrimidin-4-yl)-1H-pyrazole-3-carboxylic acid]
500 to 5000	10 to 100		COC(CC#N)c1nc(N2CCOCC2)cc(-n2ccc(-c3ccccc3)n2)n1 (stereo not drawn) [Compound 182, 3-methoxy-3-(4-morpholino-6-(3-phenyl-1H-pyrazol-1-yl)pyrimidin-2-yl)propanenitrile]
20 to 100		5 to 100	COc1nc(N2CCOCC2)cc(-n2ccc(-c3cccc(C)c3)n2)n1 [Compound 59, 4-(2-methoxy-6-(3-(m-tolyl)-1H-pyrazol-1-yl)pyrimidin-4-yl)morpholine]
100 to 500	3 to 10		Cc1cccc(-c2ccn(-c3cc(N4CCOCC4)nc(OCC#N)n3)n2)c1 [Compound 174, 2-((4-morpholino-6-(3-(m-tolyl)-1H-pyrazol-1-yl)pyrimidin-2-yl)oxy)acetonitrile]
< 20	< 3		COc1ccc(CCOc2nc(N3CCOCC3)cc(-n3ccc(-c4cccc(C)c4)n3)n2)cc1OC [Compound 105, 4-(2-(3,4-dimethoxy-phenethoxy)-6-(3-(m-tolyl)-1H-pyrazol-1-yl)pyrimidin-4-yl)morpholine]
20 to 100		< 5	Cn1cc(CCOc2nc(N3CCOCC3)cc(-n3ccc(C(=O)Nc4ccccc4)n3)n2)cn1 [Compound 64, 1-(2-(2-(1-methyl-1H-pyrazol-4-yl)ethoxy)-6-morpholinopyrimidin-4-yl)-N-phenyl-1H-pyrazole-3-carboxamide]
20 to 100	< 3		Cc1cccc(-c2ccn(-c3cc(N4CCOCC4)nc(COCc4cnn(C)c4)n3)n2)c1 [Compound 299, 4-(2-(((1-methyl-1H-pyrazol-4-yl)methoxy)methyl)-6-(3-(m-tolyl)-1H-pyrazol-1-yl)pyrimidin-4-yl)morpholine]
20 to 100	3 to 10		C[C@H](O)c1cccc(-c2ccn(-c3cc(N4CCOCC4)nc(OCCc4cnn(C)c4)n3)n2)c1 (single isomer, unassigned) [Compound 316]
100 to 500	< 3		Cc1cccc(-c2ccn(-c3cc(N4CCOCC4)nc(OCc4ccn(CCN(C)C)n4)n3)n2)c1 [Compound 238, N,N-dimethyl-2-(3-(((4-morpholino-6-(3-(m-tolyl)-1H-pyrazol-1-yl)pyrimidin-2-yl)oxy)methyl)-1H-pyrazol-1-yl)ethan-1-amine]
20 to 100	< 3		CC#CCCOc1nc(N2CCOCC2)cc(-n2ccc(-c3cccc(C)c3)n2)n1 [Compound 104, 4-(2-(pent-3-yn-1-yloxy)-6-(3-(m-tolyl)-1H-pyrazol-1-yl)pyrimidin-4-yl)morpholine]
500 to 5000	3 to 10		Cc1cccc(-c2ccn(-c3cc(N4CCOCC4)nc([C@@H](CO)OC(F)F)n3)n2)c1 (single isomer, unassigned) [Compound 309]
20 to 100	< 3		Cc1cccc(-c2cc(CN3CCOCC3)n(-c3cc(N4CCOCC4)nc(OCCc4cnn(C)c4)n3)n2)c1 [Compound 235, 4-(2-(2-(1-methyl-1H-pyrazol-4-yl)ethoxy)-6-(5-(morpholinomethyl)-3-(m-tolyl)-1H-pyrazol-1-yl)pyrimidin-4-yl)morpholine]
20 to 100		< 5	Cn1cc(C(O)C#Cc2nc(N3CCOCC3)cc(-n3ccc(-c4ccccc4)n3)n2)cn1 (stereo not drawn) [Compound 80, 1-(1-methyl-1H-pyrazol-4-yl)-3-(4-morpholino-6-(3-phenyl-1H-pyrazol-1-yl)pyrimidin-2-yl)prop-2-yn-1-ol]
100 to 500		< 5	CC(=O)Nc1nc(N2CCOCC2)cc(-n2ccc(-c3cccc(C)c3)n2)n1 [Compound 66, N-(4-morpholino-6-(3-(m-tolyl)-1H-pyrazol-1-yl)pyrimidin-2-yl)acetamide]
500 to 5000	10 to 100		CO[C@H](CO)c1nc(N2CCO[C@@H](C)C2)cc(-n2ccc(-c3cccc(C)c3)n2)n1 (single isomer, unassigned) [Compound 305]
